Patent publication US10632121B2, “Platelet-derived growth factor receptor mutations and compositions and methods relating thereto” (MEMORIAL SLOAN KETTERING CANCER CENTER, priority 2014, dated 2020)
Several values for one entry are separate records, joined by “and”; a condition that tells them apart may be missing. Identical values can stand only once.

Legend:
[1] = Clinical trial: safety, adverse events (CTCAE v4.0)
[2] = Clinical trial: primary reason for discontinuation from study treatment; assay type: in vivo, human; settings: SAR408 200 mg once daily (N = 6)
Description: All 21 patients discontinued treatment prior to receiving 1 year of postsurgery treatment. Time to tumor progression (TTP) for all patients is presented FIG. 2A.

PI3Kα = PI3Kα (Homo sapiens, UniProt P42336); settings: cited from earlier work
Chain of PI3Kα (P42336 whole entry): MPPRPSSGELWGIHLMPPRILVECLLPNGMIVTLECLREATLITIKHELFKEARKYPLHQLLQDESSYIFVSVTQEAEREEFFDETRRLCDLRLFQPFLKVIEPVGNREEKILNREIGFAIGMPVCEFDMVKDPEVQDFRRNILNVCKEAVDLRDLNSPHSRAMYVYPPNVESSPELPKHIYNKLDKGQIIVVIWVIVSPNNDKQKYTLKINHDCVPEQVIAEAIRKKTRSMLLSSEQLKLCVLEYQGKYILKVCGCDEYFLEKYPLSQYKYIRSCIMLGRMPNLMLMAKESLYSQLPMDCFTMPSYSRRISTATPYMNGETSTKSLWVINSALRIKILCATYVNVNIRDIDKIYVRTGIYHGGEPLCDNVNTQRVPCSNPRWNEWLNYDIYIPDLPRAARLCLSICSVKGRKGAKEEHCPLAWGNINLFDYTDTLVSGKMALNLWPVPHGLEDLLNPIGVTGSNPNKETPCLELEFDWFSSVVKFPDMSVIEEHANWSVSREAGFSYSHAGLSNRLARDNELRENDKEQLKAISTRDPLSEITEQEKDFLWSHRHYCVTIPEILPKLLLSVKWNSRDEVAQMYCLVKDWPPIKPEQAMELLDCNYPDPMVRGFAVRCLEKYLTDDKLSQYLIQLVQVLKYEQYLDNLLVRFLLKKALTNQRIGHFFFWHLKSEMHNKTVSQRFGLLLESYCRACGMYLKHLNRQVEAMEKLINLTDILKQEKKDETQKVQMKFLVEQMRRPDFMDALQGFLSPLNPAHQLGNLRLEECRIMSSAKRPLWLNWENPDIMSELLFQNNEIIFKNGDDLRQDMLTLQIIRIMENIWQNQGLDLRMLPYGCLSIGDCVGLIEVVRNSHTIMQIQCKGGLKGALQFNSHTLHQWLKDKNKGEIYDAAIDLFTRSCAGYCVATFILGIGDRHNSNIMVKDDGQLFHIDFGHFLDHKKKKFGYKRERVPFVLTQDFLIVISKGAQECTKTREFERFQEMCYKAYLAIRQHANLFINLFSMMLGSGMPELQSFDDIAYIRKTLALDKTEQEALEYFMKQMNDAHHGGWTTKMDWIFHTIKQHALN
Chain of PI3Kα (P27986 whole entry partner): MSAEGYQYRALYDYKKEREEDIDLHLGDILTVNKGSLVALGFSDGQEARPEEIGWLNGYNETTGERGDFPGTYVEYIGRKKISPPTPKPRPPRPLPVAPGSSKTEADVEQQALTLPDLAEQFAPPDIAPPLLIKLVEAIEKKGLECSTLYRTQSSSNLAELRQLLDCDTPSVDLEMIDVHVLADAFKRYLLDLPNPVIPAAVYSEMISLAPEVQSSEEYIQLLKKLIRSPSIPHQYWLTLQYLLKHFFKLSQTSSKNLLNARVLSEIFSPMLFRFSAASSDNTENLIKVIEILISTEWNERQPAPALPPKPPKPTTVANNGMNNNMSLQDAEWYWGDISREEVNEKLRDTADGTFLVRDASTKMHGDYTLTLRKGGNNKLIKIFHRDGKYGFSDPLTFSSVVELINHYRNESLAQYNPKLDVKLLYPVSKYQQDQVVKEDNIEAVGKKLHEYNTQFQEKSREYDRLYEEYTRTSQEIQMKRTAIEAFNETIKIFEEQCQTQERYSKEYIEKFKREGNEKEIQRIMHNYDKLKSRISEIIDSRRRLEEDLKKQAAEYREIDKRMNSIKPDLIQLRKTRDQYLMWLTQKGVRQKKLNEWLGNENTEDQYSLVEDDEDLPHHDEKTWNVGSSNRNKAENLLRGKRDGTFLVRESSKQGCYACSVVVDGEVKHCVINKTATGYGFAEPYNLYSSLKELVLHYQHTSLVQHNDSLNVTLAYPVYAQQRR

glioblastoma tumor cells = experiment: Clinical trial: Ki-67 IHC tumor cell proliferation; assay type: in vivo, human
Procedure: The design of the trial allowed comparison of the initial glioma (Surgery 1) in these patients to the recurrent glioma which was treated with drug before surgical resection (Surgery 2). Immunohistochemical staining (IHC) was performed on the samples and pathway inhibition was measured via pS6 Ser235/6, pS6K1 Thr389, p4E-BP1 Thr37/46, and pPRAS40 Thr246 (FIG. 1E, upper panel). Cellular proliferation was measured via Ki-67 IHC. These IHC measurements were compared to one another and reported as a percentage decrease or increase of Surgery2/Surgery 1. Samples which had reduction of all four phospho-protein measurements in Surgery 2 also had the greatest relative decreases in cellular proliferation (FIG. 1E, lower panel). Samples which had no inhibition of any pharmacodynamic biomarker or inhibition of only one pharmacodynamic biomarker were most likely to see a relative increase in proliferation.
To compare the relative change in cellular proliferation in the three drug arms and a drug naïve population, a control population was formed of patients who had not been treated with any PI3K inhibitor and surgical samples available from two surgical resections and compared their relative proliferation via Ki-67 IHC (FIG. 12A). This control group was compared with the three arms of the trial. […] There was no statistically significant change in proliferation between the control group and the other arms of the trial.
To determine the Ki-67 labeling index, slides were analyzed as with the phospho-proteins, and the number of positively stained and total number of cells was determined for each image. The percentage of Ki-67 positive cells was calculated for each image, then the three images were averaged.

PI3Kδ = PI3Kδ (Homo sapiens, UniProt O00329); settings: cited from earlier work
Chain of PI3Kδ (O00329 whole entry): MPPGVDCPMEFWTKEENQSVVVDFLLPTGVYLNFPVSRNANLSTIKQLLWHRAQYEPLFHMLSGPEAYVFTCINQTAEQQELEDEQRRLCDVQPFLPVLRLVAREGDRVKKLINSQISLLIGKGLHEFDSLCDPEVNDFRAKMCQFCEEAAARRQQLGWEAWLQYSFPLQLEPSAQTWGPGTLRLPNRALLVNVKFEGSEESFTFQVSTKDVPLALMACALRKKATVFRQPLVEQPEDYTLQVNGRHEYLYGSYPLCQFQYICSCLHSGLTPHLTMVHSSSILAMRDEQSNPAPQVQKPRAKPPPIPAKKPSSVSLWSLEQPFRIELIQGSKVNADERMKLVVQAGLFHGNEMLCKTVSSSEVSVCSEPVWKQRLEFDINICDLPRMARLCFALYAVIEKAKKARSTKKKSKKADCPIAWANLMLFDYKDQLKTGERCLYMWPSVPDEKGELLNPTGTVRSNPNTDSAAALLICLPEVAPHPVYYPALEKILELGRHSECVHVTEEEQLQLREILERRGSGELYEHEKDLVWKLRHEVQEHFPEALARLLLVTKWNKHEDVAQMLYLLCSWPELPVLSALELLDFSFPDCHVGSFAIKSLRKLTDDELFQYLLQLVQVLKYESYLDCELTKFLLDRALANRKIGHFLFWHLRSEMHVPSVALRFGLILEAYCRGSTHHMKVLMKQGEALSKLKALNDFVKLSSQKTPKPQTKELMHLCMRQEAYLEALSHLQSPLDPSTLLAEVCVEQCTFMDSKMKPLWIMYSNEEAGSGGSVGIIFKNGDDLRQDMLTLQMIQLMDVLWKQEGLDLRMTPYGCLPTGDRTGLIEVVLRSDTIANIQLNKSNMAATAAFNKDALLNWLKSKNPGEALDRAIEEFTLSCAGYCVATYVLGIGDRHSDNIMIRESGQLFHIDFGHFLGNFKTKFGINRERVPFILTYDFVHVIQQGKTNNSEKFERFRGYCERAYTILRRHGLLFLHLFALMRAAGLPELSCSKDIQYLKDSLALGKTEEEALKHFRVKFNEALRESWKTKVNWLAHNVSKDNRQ
Chain of PI3Kδ (P27986 whole entry partner): as the sequence (P27986 whole entry partner) above

PI3Kβ = PI3Kβ (Homo sapiens, UniProt P42338); settings: cited from earlier work
Chain of PI3Kβ (P42338 whole entry): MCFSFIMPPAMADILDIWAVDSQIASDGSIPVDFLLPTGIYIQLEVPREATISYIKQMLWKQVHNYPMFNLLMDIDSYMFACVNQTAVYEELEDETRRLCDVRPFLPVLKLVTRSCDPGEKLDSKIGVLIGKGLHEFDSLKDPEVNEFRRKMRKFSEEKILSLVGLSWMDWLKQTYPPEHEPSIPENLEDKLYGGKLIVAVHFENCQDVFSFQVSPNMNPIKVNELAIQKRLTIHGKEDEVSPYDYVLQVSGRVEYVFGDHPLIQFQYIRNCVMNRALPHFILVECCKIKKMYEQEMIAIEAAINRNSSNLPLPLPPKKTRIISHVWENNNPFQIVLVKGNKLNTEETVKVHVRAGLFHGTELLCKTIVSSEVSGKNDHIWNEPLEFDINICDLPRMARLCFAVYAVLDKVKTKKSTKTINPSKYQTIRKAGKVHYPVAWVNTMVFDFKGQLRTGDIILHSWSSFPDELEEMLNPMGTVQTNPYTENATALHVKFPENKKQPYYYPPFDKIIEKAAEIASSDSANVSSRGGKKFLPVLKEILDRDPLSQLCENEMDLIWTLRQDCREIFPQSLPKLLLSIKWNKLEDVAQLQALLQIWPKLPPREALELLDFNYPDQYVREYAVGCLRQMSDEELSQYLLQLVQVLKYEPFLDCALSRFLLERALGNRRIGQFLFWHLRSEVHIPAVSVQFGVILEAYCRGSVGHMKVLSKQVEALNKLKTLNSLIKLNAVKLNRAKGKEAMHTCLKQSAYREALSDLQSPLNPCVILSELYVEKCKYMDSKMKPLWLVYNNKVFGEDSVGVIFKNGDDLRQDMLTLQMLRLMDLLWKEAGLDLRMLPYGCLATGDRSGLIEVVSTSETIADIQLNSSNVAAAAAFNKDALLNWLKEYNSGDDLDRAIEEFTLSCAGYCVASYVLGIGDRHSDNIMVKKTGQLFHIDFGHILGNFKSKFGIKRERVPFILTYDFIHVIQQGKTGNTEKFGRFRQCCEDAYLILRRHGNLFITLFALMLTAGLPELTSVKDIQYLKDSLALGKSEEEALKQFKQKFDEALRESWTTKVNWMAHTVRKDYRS
Chain of PI3Kβ (P27986 whole entry partner): as the sequence (P27986 whole entry partner) above

mTOR = mTOR (Homo sapiens, UniProt P42345); settings: cited from earlier work
PI3K/mTOR pathway = experiment: Clinical trial: IHC of PI3K/mTOR pathway markers in GBM tumor tissue; assay type: in vivo, human; settings: patients treated 10-28 days before surgery
Procedure: To evaluate pharmacodynamic effects in tumor tissue, immuno-histochemistry (IHC) was performed with phosphorylation-site specific antibodies against four PI3K/mTOR pathway components: Proline-Rich Akt Substrate of 40-kDa (PRAS40, threonine246), ribosomal protein S6 kinase 1 (S6K1, threonine 389), eukaryotic translation initiation factor 4E-binding protein 1 (4E-BP1, threonine 37/46), and S6 Ribosomal Protein (S6RP, serine 235/236) (FIG. 1D). For each marker staining of several thousand tumor cells was quantified and the staining intensity in the “on-treatment”-biopsy (Surgery 2) was compared with the staining intensity in the tumor sample collected from the same patient at diagnosis (Surgery 1). This “matched-pair” analysis included 19/21 evaluable patients (Table 3) who received at least one dose of study drug, had detectable phospho-S6RP in the pre-treatment sample (Surgery 1), and had tissue of sufficient quality collected on treatment (Surgery 2).
The design of the trial allowed comparison of the initial glioma (Surgery 1) in these patients to the recurrent glioma which was treated with drug before surgical resection (Surgery 2). Immunohistochemical staining (IHC) was performed on the samples and pathway inhibition was measured via pS6 Ser235/6, pS6K1 Thr389, p4E-BP1 Thr37/46, and pPRAS40 Thr246 (FIG. 1E, upper panel). Cellular proliferation was measured via Ki-67 IHC. […]
Immunohistochemical (IHC) staining of patient samples was performed on formalin-fixed paraffin-embedded (FFPE) tumor tissues collected at the initial surgery and recurrent tumor surgery. […] Immunoreactivity was detected using NovaRED Peroxidase Substrate kit (Vector Labs SK-4800) and sections were counterstained with hematoxylin.
To analyze pathway inhibition, three representative tumor images from each slide stained with phospho-proteins were taken, after determining the presence of tumor cells based on hematoxylin staining evaluation. […] The tumor to normal ratio was calculated by dividing the average of the tumor images by the average of the normal tissue image. […]

PI3Kγ = PI3Kγ (Homo sapiens, UniProt P48736); settings: cited from earlier work
Chain of PI3Kγ (P48736 whole entry): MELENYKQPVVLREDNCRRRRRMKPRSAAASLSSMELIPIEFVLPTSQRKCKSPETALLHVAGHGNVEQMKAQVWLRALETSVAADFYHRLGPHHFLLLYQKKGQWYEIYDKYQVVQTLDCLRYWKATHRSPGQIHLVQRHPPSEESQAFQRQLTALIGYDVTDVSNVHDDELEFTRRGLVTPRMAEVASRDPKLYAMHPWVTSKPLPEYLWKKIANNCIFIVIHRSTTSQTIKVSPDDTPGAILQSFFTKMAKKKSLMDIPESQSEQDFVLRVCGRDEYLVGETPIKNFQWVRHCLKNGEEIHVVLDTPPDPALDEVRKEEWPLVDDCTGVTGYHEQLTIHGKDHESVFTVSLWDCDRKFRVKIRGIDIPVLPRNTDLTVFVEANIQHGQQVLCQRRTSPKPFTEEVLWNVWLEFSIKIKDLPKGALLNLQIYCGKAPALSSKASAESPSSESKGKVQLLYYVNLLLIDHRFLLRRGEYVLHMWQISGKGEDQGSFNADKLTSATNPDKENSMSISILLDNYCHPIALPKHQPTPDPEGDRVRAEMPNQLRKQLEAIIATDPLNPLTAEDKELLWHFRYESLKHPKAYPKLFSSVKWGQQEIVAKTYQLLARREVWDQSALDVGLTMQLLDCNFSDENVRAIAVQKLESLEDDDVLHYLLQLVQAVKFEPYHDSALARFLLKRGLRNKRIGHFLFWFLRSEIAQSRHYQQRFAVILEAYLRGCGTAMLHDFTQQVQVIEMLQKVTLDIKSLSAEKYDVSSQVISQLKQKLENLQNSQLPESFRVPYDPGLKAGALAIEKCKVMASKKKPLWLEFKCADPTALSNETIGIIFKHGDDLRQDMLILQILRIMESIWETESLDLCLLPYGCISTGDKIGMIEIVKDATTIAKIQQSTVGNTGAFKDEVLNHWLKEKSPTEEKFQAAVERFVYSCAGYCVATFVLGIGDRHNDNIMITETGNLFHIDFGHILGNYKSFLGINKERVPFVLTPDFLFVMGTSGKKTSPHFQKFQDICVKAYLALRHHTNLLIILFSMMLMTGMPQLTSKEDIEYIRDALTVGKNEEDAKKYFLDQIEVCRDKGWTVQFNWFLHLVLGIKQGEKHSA

[3] = tested on: panel of 130 other kinases; settings: Cloughesy et al., 2013; cited from earlier work
recurrent glioblastoma = experiment: Clinical trial: time to progression and tumor response; assay type: in vivo, human
[4] = SAR408 200 mg once daily (N = 6)

## COc1ccc(Cl)c(Nc2nc3ccccc3nc2NS(=O)(=O)c2cccc(NC(=O)C(C)(C)N)c2)c1 [SAR408, pilaralisib]
[1]; [4]
  Patients with any Grade 3/4 TEAE: 2 n (%) and 2 (33.3) n (%)
  Patients with any Grade 3/4 treatment-emergent SAE: 1 (16.7) n (%)
  Patients with any TEAE: 6 (100.0) n (%)
  Patients with any TEAE leading to death: 0 n (%)
  Patients with any TEAE leading to dose reduction or interruption: 0 n (%)
  Patients with any TEAE leading to permanent treatment discontinuation: 0 n (%)
  Patients with any related Grade 3/4 TEAE: 0 n (%)
  Patients with any related Grade 3/4 treatment-emergent SAE: 0 n (%)
  Patients with any related TEAE: 3 n (%) and 3 (50.0) n (%)
  Patients with any related treatment-emergent SAE: 0 n (%)
  Patients with any treatment emergent SAE: 1 n (%) and 1 (16.7) n (%)
[1]; SAR408 once daily cohort
  TEAEs of ALT increased, AST increased, blood bilirubin increased or gamma-glutamyltransferase increased: No TEAEs
[1]; all cohorts of the drug pooled
  drug-related TEAE: fatigue: 2 patients
[1]; seventeen patients who resumed drug postoperatively
  tolerability of postoperative treatment: tolerated it well
[2]
  Discontinuation: Adverse Event or SAE unrelated to disease progression: 0 n (%)
  Discontinuation: Clinical disease progression per principal investigator: 0 n (%)
  Discontinuation: Disease progression per modified RANO: 6 (100.0) n (%)
PI3Kα
  IC50: 48 nM
Glioblastoma tumor cells; 200 mg/QD SAR245408 arm
  change in proliferation (Ki-67) compared to untreated control population: not significantly different
Glioblastoma tumor cells; patients treated 10-28 days before surgery
  cellular proliferation in tumor, Surgery 2 vs Surgery 1: Reduced Cellular Proliferation
PI3Kδ
  IC50: 10 nM
PI3Kβ
  IC50: 617 nM
mTOR
  IC50: > 15000 nM
PI3K/mTOR pathway
  PI3K/mTOR pathway inhibition in tumor, Surgery 2 vs Surgery 1: Inhibition of the PI3K/mTOR Pathway
PI3Kγ
  IC50: 260 nM
[3]
  inhibition of a panel of 130 other kinases: do not significantly inhibit
Recurrent glioblastoma; SAR408 200 mg/QD
  TTP (time to progression), individual patients: 6.14 wks (2×) and 18.29 wks and 10.14 wks and 6 wks and 4.57 wks
Recurrent glioblastoma; SAR245408 arm
  median time to progression: 6.14 weeks
  range of time to progression: 4.57-18.29 weeks
